Measurements taken from publication PMC4655142 (Neuropharmacology, 2015).
Like-named read-outs stand apart in the source and are kept apart here.

Experiments:
[1] = cited from earlier work
[2] = cited from earlier work; remark: listed apart in the source
[3] = cited from earlier work; remark: listed apart in the source
C57Bl/6J mice = experiment: Tolerance to acute nicotine after chronic treatment; type: in vivo; conditions: Mus musculus, ip
[4] = target: [125I]-epibatidine binding sites (α4β2-nAChR), cortex membranes (Mus musculus, UniProt O70174+Q9ERK7); experiment: Inhibition of [125I]-epibatidine binding to cortex membranes; set-up: species or system C57Bl/6J mice
Sequence of [125I]-epibatidine binding sites (α4β2-nAChR), cortex membranes (O70174 31-629): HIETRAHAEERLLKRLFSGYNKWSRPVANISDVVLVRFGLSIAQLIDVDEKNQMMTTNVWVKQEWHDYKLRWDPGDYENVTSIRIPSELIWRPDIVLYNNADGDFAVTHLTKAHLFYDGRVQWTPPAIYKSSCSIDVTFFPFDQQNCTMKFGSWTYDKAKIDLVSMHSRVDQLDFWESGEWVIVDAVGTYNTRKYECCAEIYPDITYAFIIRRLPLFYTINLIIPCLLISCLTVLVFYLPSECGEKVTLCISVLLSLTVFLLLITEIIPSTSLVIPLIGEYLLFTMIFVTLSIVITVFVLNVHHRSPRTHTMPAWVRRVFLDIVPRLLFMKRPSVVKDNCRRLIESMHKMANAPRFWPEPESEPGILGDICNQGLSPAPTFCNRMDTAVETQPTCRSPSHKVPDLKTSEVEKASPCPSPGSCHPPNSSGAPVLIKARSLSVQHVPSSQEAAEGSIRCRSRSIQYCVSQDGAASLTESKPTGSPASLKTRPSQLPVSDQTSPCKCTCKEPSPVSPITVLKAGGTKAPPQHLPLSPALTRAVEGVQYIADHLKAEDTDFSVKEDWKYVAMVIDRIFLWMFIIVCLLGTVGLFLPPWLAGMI
Sequence of [125I]-epibatidine binding sites (α4β2-nAChR), cortex membranes (Q9ERK7 26-501): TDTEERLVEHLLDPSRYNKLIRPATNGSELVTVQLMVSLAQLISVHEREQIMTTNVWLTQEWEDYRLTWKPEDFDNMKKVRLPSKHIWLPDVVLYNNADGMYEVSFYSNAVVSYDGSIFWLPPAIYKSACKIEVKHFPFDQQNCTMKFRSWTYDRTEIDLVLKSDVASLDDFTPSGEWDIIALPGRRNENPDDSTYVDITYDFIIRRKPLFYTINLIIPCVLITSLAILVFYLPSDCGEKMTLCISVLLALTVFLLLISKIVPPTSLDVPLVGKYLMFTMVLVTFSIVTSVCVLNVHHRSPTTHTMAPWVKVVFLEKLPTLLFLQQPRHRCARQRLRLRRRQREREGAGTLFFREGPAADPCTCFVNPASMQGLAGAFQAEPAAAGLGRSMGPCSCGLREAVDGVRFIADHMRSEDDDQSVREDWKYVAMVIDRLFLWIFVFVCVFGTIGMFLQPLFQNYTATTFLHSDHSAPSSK

**Q.** With CN1CCC[C@H]1c1cccnc1 [Nicotine] as the compound, how does the Plasma level ([1]; mice, 12-24 mg/kg/day, ref Marks, Rowell et al., 2004, Matta et al, 2007) read?
**A.** The Plasma level was 40 to 80 ng/mL.

**Q.** What about the Plasma level ([1]; mice, similar chronic treatment protocols, ref Marks, Rowell et al., 2004) of the same compound?
**A.** The Plasma level was 40 to 80 ng/mL.

**Q.** What about the Plasma level ([1]; mouse, in vivo, sc, 1 mg/kg) of the same compound?
**A.** Its Plasma level is 160 ng/mL.

**Q.** What about the Plasma level ([2]; rat, sc infusion of 2.4 mg/kg/day, ref Rowell and Li, 1997) of the same compound?
**A.** Its Plasma level is 43 ng/mL.

**Q.** What about the Plasma level ([2]; rats, 0.8 mg/kg/day, ref Ghosheh et al, 2001) of the same compound?
**A.** Its Plasma level is 6.5 ng/mL.

**Q.** What about the Plasma level ([2]; rats, 6.0 mg/kg/day, ref Hussman, Turner et al, 2012, Doura et al, 2008) of the same compound?
**A.** The Plasma level was 146 to 313 ng/mL.

**Q.** What about the Plasma level ([3]; human smokers, pre-quit, smoking cessation trial, ref Dobrinas et al, 2011) of the same compound?
**A.** The Plasma level was “up to 52 ng/ml”.

**Q.** What about the ED50 (C57Bl/6J mice; 24 h, read-out: ED50 of acute ip nicotine, Body temperature) of the same compound?
**A.** The ED50 was 0.8 ± 0.05 mg/kg.

**Q.** And the ED50 (C57Bl/6J mice; 24 h, read-out: ED50 of acute ip nicotine, Open field)?
**A.** The ED50 was 0.6 ± 0.06 mg/kg.

**Q.** And the ED50 (C57Bl/6J mice; 24 h, read-out: ED50 of acute ip nicotine, Y-maze cross)?
**A.** Its ED50 is 0.49 ± 0.04 mg/kg.

**Q.** And the ED50 (C57Bl/6J mice; 24 h, read-out: ED50 of acute ip nicotine, Y-maze rear)?
**A.** The ED50 was 0.38 ± 0.03 mg/kg.

**Q.** What about the ED50 (C57Bl/6J mice; read-out: ED50 of acute ip nicotine, Body temperature) of the same compound?
**A.** Its ED50 is 0.88 ± 0.09 mg/kg.

**Q.** And the ED50 (C57Bl/6J mice; read-out: ED50 of acute ip nicotine, Open field)?
**A.** Its ED50 is 0.55 ± 0.06 mg/kg.

**Q.** And the ED50 (C57Bl/6J mice; read-out: ED50 of acute ip nicotine, Y-maze cross)?
**A.** The ED50 was 0.47 ± 0.06 mg/kg.

**Q.** And the ED50 (C57Bl/6J mice; read-out: ED50 of acute ip nicotine, Y-maze rear)?
**A.** The ED50 was 0.38 ± 0.05 mg/kg.

**Q.** What does the source list for c1cnc2cc3c(cc2n1)[C@@H]1CNC[C@H]3C1 [Varenicline]?
**A.** Peak plasma level ([1]; mice, single oral dose of 3 mg (or ~120 mg/kg), ref Obach et al, 2006): 293 ng/mL; brain:plasma ratio ([2]; rats, ref Hussmann, Turner et al, 2012): 1.5; Ki [4]: 0.11 ± 0.01 nM; Plasma level ([3]; humans taking varenicline, smoking cessation study, ref Dobrinas et al, 2011): up to 20 ng/ml; Plasma level ([3]; humans, single oral dose 1 mg (~[…]), ref Obach et al, 2006, Al-Haj et al, 2013): 4 to 6 ng/mL; t ½ ([3]; humans, ref Obach et al, 2006): 17.6 h
